Assay results taken from patent US20190352358A1, “COMPOUNDS, COMPOSITIONS AND USES THEREOF FOR IMPROVEMENT OF BONE DISORDERS” (ALIZE PHARMA III SAS, priority 2017, published 2019).
Residues, ends and D or L forms follow the SMILES beside them. *: point of attachment. Stearoyl = CCCCCCCCCCCCCCCCCC(=O)*

What was measured:
[1] = Pharmacokinetics in male Sprague Dawley rats after intravenous and subcutaneous injection (Example 10); assay type: in vivo; conditions: 1 μmol net peptide/kg, rat; for Tlast (last time point with detectable peptide): listed as HBD1 (3-11) with stearic acid at the N-terminus (C18:0)
Procedure: The peptides were reconstituted in saline (0.9% NaCl). Three male Sprague Dawley rats were used per group. Intravenous doses were administered into a lateral tail vein at the dose of 1 μmol net peptide/kg. Subcutaneous doses were administered into the right flank of each animal, also at the dose of 1 μmol net peptide/kg. Following dosing, serial whole blood samples (ca. 0.25 mL) were collected from a lateral tail vein into K2EDTA treated containers. Following each blood sample collection, samples were placed into a cooling block at 4° C. Samples were collected prior to dosing then at 2, 5, 15 and 30 minutes then 1, 2, 4, 6 and 8 and 24 hours post dose for intravenous injection and at 15 and 30 minutes then 1, 2, 4, 6, 8 and 24 hours post dose for subcutaneous injection.
Blood samples were centrifuged at 10000×g for 2 minutes at 4° C. and resultant plasma aspirated off into clean fully, labelled tubes. Plasma samples were snap frozen following aspiration then stored at −80° C. Peptides were extracted and analyzed as described in Example 9. The limits of quantification of these methods were 0.001 nmol/mL for cyclic HBD1 (3-11) and HBD1 (3-11) and 0.003 nmol/mL for HBD1 (1-13). All values below these limits of quantification were considered as zero.

[2] = Pharmacokinetics of acylated analogs in male Sprague Dawley rats after subcutaneous injection (Example 11); assay type: in vivo; conditions: sc, rat
Procedure: The peptides were reconstituted in saline (0.9% NaCl). Three male Sprague Dawley rats (approximately 6 weeks of age) were used per group. Subcutaneous doses were administered into the right flank of each animal […]. Following dosing, serial whole blood samples (ca. 0.3 mL) were collected from retro-orbital sinus into K2EDTA treated containers. Following each blood sample collection, samples were placed into a cooling block at 4° C. Samples were collected prior to dosing then at 15 and 30 minutes then 1, 2, 4, 6, 8 and 24 hours post dose for subcutaneous injection. Blood samples were centrifuged at 3500×rpm for 10 minutes at 4° C. and resultant plasma aspirated off into clean fully, labelled tubes. Plasma samples were snap frozen following aspiration then stored at −80° C. The peptides were extracted with acetonitrile:water (75:25, v/v) and analyzed using developed LC-MS/MS methods as described in Example 9. The limits of detection of these methods are 0.003 nmol/mL for HBD1 (1-13) with palmitic acid at the N-terminus (C16:0), 0.0008 nmol/mL for HBD1 (3-11) with palmitic acid at the N-terminus (C16:0), 0.0070 nmol/mL for HBD1 (3-11) with stearic acid at the N-terminus (C18:0), and 0.0015 nmol/mL for HBD1 (3-11) with myristic acid at the N-terminus (C14:0), HBD1 (3-11) with arachidic acid at the N-terminus (C20:0), HBD1 (3-11) with palmitic diacid at the N-terminus (C16:0-diacid), HBD1 (3-11) with palmitic acid at the C-terminus (C16:0). All values below these limits of quantification were considered as zero.

[3] = Pharmacokinetics in Göttingen minipigs after intravenous and subcutaneous injection (Example 12); assay type: in vivo; conditions: minipig; for Cmax: read-out: maximum concentrations (Cmax), mean; for AUC(0-t): read-out: mean total exposure (AUC0-t); for Tmax: read-out: times post dose for maximum concentration (Tmax), median
Procedure: The peptide was reconstituted in saline (0.9% NaCl). Three Göttingen minipigs (approximately 8-10 months of age) were used per group. Intravenous doses were administered into an ear vein at the dose of 0.5 μmol net peptide/kg. Subcutaneous doses were administered into the right flank of each animal, also at the dose of 0.5 μmol net peptide/kg. Following dosing, serial whole blood samples (ca. 0.25 mL) were collected from a jugular vein into K2EDTA treated containers. Following each blood sample collection, samples were placed into a cooling block at 4° C. Samples were collected prior to dosing then at 5 and 30 minutes then 1, 2, 4, 8, 25, 48, 72 and 96 hours post dose for intravenous injection and at 15 and 30 minutes then 1, 2, 4, 8, 25, 48, 72 and 96 hours post dose for subcutaneous injection.
Blood samples were centrifuged at 10000×g for 2 minutes at 4° C. and resultant plasma aspirated off into clean fully, labelled tubes. Plasma samples were snap frozen following aspiration then stored at −80° C. Peptide extraction and analysis were performed as described in Example 9. The limit of quantification of this method is 0.0015 nmol/mL. All values below this limit of quantification are considered as zero.

[4] = test system: ovariectomized (OVX) rats; test: Bone μCT of proximal tibia in ovariectomized (OVX) rats after 6-week treatment; assay type: in vivo, female Sprague-Dawley rats; conditions: 0.8, 1.6 or 3.2 mg/kg s.c. twice a day, 6 weeks; dose-dependent
Procedure: (§1) Effects on bone of three doses of HBD1 (3-11) with stearic acid at the N-terminus (C18:0) analog were tested in vivo in ovariectomized (OVX) rats, a recognized model for human osteoporosis, in particular postmenopausal osteoporosis. Each group included ten female Sprague-Dawley rats that were four months of age at the beginning of the in-life phase of the study. Treatment started six weeks after OVX surgery and lasted for six additional weeks. Groups were randomized before surgery according to body weight and tibial metaphysis Bone Mineral Density (BMD) as measured by peripheral quantitative computed tomography (pQCT) from Norland Stratec XCT Research SA equipment (Norland Stratec Medizintechnik, Birkenfeld, Germany).
(§2) The peptide was reconstituted in saline solution (0.9% NaCl) and administered subcutaneously twice a day at the doses of 0.8 mg/kg (low), 1.6 mg/kg (med) or 3.2 mg/kg (high) in a volume of 1 mL/kg. The control group was administered twice a day with saline by s.c. administration. Rats were weighed once a week and the volume of dosing solution administered was adjusted accordingly.
High-resolution micro-computed tomography (μCT) measurements using SkyScan 1072 or 1172 High Resolution Scanner (Bruker microCT, Kontich, Belgium) were performed ex vivo in right proximal tibia at the end of the treatment period for measuring bone volume, bone cross-sectional dimensions and bone microarchitecture. FIGS. 5A, 5B and 5C show the percent increase from OVX animals HBD1 (3-11) with stearic acid at the N-terminus (C18:0) groups for following selected parameters: Bone Volume Fraction (BV/TV; %), Trabecular number (Tb.N; mm^−1) and Connectivity Density (Conn.D; mm^−3).

[5] = test system: ovariectomized (OVX) rats; test: Bone biomechanical tests (lumbar vertebrae compression, femoral neck cantilever bending) in OVX rats; assay type: in vivo, female Sprague-Dawley rats; conditions: 3.2 mg/kg BID s.c., 6 weeks
Procedure: as §1, §2
Bone biomechanical properties were determined by compression test using Instron 3343 biomechanical testing system (Instron, Norwood, Mass., USA). […]

[6] = male, Sprague Dawley, plasma, iv
[7] = male, Sprague Dawley, plasma, sc
[8] = Göttingen, plasma, 0.5 umol/kg, iv, 0.5 μmol/kg
[9] = Göttingen, plasma, 0.5 umol/kg, sc, 0.5 μmol/kg

In the case of `CCCCCCCCCCCCCCCCCC(=O)N[C@@H](Cc1c[nH]cn1)C(=O)N[C@@H](CC(C)C)C(=O)NCC(=O)N[C@@H](CC(C)C)C(=O)N[C@@H](CCC(=O)O)C(=O)N[C@@H](CCC(=O)O)C(=O)N1CCC[C@H]1C(=O)N[C@@H](CCCCN)C(=O)N[C@@H](CCCCN)C(=O)O` [SEQ ID NO: 73, C18:0-HLGLEEPKK] (Stearoyl-HLGLEEPKK-OH; C-terminus assumed), the “Tlast (last time point with detectable peptide)” value ([1]; iv) is reported as 8 h, the bioavailability ([1]; male, Sprague Dawley, plasma, subcutaneous, sc vs iv, read-out: F (bioavailability)) is reported as 52% and the AUC(0-t) [1, 6] is reported as 9.28 µM·h. The Cmax [1, 6] was 10.2 µM, the Tmax [1, 6] was 0.033 h and the AUC(0-t) [1, 7] was 4.81 µM·h. For the same compound, the Cmax [1, 7] was 0.54 µM, the Tmax [1, 7] was 4 h and the “Tlast (last time point with detectable peptide)” value ([1]; sc) was 8 h. The “peptide exposure compared among acylated peptides (in words)” value [2] was “higher peptide exposure”, the Cmax [3, 8] was 6.27 µM and the AUC(0-t) [3, 8] was 3.75 µM·h. The Tmax [3, 8] was 0.083 h, the Cmax [3, 9] was 0.29 µM and the AUC(0-t) [3, 9] was 3.07 µM·h. The Tmax [3, 9] was 4 h, the bioavailability ([3]; Göttingen, plasma, sc, 0.5 umol/kg, read-out: mean calculated subcutaneous bioavailability relative to i.v.) was 83.1% and the “exposure duration after subcutaneous administration” value ([3]; sc, 0.5 μmol/kg) was “up to 25 hours”. The “Bone Volume Fraction (BV/TV) at tibial metaphysis vs OVX vehicle” value [4] was “increased”, the “Connectivity Density (Conn.D) at tibial metaphysis vs OVX vehicle” value [4] was “increased” and the “Trabecular number (Tb.N) at tibial metaphysis vs OVX vehicle” value [4] was “increased”. For the same compound, the “biomechanical properties of femoral neck (load at break point)” value [5] was “improved” and the “biomechanical properties of lumbar vertebrae (maximal load, energy absorption at maximal load, stress at maximal load)” value [5] was “improved”.
